# pEC50, pIC50: −log10 of the molar value. Positions of bridges follow the written chain, without caps; N, C: chain ends. Non-standard residues stand in square brackets, D forms with d. Residues, ends and D or L forms follow the SMILES beside them. Aoc = NCCCCCCCC(=O)O
# Experiments:
# human Y2 receptor [1] = target: T1, human Y2 receptor (Homo sapiens, UniProt P49146); assay: Human Y2 receptor potency assay (inositol phosphate turnover); assay type: cell-based; settings: Y2 EC50, COS-7 cells with human Y2 and Gqi5, inositol phosphate turnover; Table 2
# T1 construct: expressed in transfected cells; host or cells: COS-7
# T1 sequence (P49146 1-381): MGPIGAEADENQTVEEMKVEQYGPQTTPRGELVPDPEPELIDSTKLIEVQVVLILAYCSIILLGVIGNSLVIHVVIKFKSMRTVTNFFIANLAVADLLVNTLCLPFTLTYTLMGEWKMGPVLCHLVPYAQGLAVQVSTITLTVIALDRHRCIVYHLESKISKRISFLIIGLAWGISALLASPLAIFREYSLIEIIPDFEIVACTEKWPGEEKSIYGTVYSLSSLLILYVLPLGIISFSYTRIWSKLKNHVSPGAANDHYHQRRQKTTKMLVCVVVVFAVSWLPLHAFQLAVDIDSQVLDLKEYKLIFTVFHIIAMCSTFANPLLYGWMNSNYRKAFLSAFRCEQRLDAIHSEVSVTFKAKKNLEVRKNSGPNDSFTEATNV
# Method: (§1) Potency of the test compounds on the human Y2 receptor is determined by performing dose-response experiments in COS-7 cells transiently transfected with the human Y2 receptor as well as a promiscuous G protein, Gqi5 which ensures that the Y2 receptor couples through a Gq pathway leading to an increase in inositol phosphate turnover.
# (§2) Cells are washed twice in buffer, 20 mM HEPES, pH 7.4, supplemented with 140 mM NaCl, 5 mM KCl, 1 mM MgSO4, 1 mM CaCl2, 10 mM glucose, 0.05% (w/v) bovine serum; and are incubated in 0.5 ml buffer supplemented with 10 mM LiCl at 37 C for 30 min. After stimulation with various concentrations of peptide for 45 min at 37 C, cells are extracted with 10% ice-cold perchloric acid followed by incubation on ice for 30 min. The resulting supernatants are neutralized with KOH in HEPES buffer, and the generated [3H]-inositol phosphate are purified on Bio-Rad AG 1-X8 anion-exchange resin and counted in a beta counter. Determinations are made in duplicates. EC50 values were calculated using a standard pharmacological data handling software, Prism 3.0 (graphPad Sofware, San Diego, USA).
# human Y4 receptor [2] = target: T2, human Y4 receptor (Homo sapiens, UniProt P50391); assay: Human Y4 receptor affinity assay (competition binding)
# T2 construct: expressed in transfected cells; host or cells: COS-7
# T2 sequence (P50391 whole entry): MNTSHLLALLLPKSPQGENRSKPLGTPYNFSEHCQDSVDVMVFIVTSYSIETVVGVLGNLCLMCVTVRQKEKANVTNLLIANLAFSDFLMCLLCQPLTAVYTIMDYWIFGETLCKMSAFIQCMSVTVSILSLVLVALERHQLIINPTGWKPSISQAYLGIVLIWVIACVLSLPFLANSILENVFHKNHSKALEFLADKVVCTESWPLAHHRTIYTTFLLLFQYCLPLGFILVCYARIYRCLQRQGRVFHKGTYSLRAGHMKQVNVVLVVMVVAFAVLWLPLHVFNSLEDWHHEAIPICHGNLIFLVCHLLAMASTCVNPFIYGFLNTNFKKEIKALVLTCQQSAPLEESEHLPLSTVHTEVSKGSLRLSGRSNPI
# Method: (§3) Transfected COS-7 cells are transferred to culture plates one day after transfection at a density of 40×10^3 cells per well aiming at 5-8% binding of the radioactive ligand. […] Determinations are made in duplicate. […] EC50 values were calculated using a standard pharmacological data handling software, Prism 3.0 (graphPad Sofware, San Diego, USA).
# human Y5 receptor [3] = target: T3, human Y5 receptor (Homo sapiens, UniProt Q15761); assay: Human Y5 receptor affinity assay (competition binding)
# T3 construct: expressed in transfected cells; host or cells: COS-7
# T3 sequence (Q15761 whole entry): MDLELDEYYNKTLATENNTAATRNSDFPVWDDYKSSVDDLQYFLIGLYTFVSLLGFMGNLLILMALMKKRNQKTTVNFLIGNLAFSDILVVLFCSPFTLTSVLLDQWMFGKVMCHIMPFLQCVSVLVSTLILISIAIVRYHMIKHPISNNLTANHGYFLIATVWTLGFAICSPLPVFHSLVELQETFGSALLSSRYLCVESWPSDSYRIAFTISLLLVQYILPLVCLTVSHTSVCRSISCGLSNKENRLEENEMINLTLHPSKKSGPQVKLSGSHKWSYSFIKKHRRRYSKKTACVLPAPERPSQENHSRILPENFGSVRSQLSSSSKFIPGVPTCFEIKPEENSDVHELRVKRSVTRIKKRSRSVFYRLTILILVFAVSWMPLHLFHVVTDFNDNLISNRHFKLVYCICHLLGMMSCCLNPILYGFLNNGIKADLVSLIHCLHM
# Method: as §3
# human Y1 receptor [4] = target: T4, human Y1 receptor (Homo sapiens, UniProt P25929); assay: Human Y1 receptor potency assay (inositol phosphate turnover); assay type: cell-based
# T4 construct: expressed in transfected cells; host or cells: COS-7
# T4 sequence (P25929 1-384): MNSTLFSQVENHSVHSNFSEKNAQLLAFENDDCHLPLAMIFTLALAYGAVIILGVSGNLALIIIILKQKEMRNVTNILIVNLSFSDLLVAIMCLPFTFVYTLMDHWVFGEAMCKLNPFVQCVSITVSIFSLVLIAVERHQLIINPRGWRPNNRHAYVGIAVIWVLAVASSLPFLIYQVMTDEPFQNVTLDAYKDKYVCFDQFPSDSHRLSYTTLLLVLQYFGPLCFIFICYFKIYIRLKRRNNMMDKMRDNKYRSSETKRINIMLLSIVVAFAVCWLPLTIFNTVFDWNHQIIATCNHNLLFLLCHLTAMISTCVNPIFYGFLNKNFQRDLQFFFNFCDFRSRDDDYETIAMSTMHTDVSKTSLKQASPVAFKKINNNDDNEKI
# Method: as §1, §2
# Protocol as for the Y2 potency assay, except that human Y1-transformed COS-7 cells are used.
# human Y5 receptor [5] = target: T3, human Y5 receptor; assay: Human Y5 receptor potency assay (inositol phosphate turnover); assay type: cell-based
# Method: as §1, §2
# Protocol as for the Y2 potency assay, except that human Y5-transformed COS-7 cells are used
# human Y4 receptor [6] = target: T2, human Y4 receptor; assay: Human Y4 receptor potency assay (inositol phosphate turnover); assay type: cell-based
# Method: as §1, §2
# Protocol as for the Y2 potency assay, except that human Y4-transformed COS-7 cells are used.
# human Y1 receptor [7] = target: T4, human Y1 receptor; assay: Human Y1 receptor affinity assay (competition binding)
# Method: as §3
# human Y2 receptor [8] = target: T1, human Y2 receptor; assay: Human Y2 receptor affinity assay (competition binding)
# Method: as §3
# rats = settings: rat; cited from earlier work
molecule,measurement,setting,value
"CC[C@H](C)[C@@H]1NC(=O)[C@@H](NC(=O)[C@@H](N)Cc2ccc(O)cc2)CSSC[C@H](C(=O)N[C@@H](CC(C)C)C(=O)N[C@@H](CC(N)=O)C(=O)N[C@@H](CC(C)C)C(=O)N[C@H](C(=O)N[C@H](C(=O)N[C@@H](CCCNC(=N)N)C(=O)N[C@@H](CCC(N)=O)C(=O)N[C@@H](CCCNC(=N)N)C(=O)N[C@@H](Cc2ccc(O)cc2)C(N)=O)[C@@H](C)O)C(C)C)NC(=O)[C@H](Cc2c[nH]cn2)NC(=O)[C@H](CCCNC(=N)N)NC(=O)CCCCCCCNC(=O)[C@H](CCCCN)NC1=O [SEQ ID NO: 16, [Cys2,Aoc5-24,D-Cys27]PYY] (H-YCIK[Aoc]RH[dC]LNLVTRQRY-NH2; disulfide 2-8; N-terminus assumed)",pEC50,human Y2 receptor [1],8.43
same,pIC50,human Y4 receptor [2],6.57
same,pIC50,human Y5 receptor [3],< 6.00
same,pEC50,human Y1 receptor [4],< 6.00
same,stimulation of the Y1 receptor,human Y1 receptor [4]; at 1 μM,does not even at 1 μM stimulate
same,pEC50,human Y5 receptor [5],< 6.00
same,stimulation of the Y5 receptor,human Y5 receptor [5]; at a concentration of 1 μM,stimulates neither
same,pEC50,human Y4 receptor [6],< 6.00
same,stimulation of the Y4 receptor,human Y4 receptor [6]; at a concentration of 1 μM,stimulates neither
same,pIC50,human Y1 receptor [7],< 6.00
same,pIC50,human Y2 receptor [8],9.06
"CC(C)C[C@H](NC(=O)[C@H](Cc1ccc(O)cc1)NC(=O)[C@H](Cc1c[nH]cn1)NC(=O)[C@H](CCCNC(=N)N)NC(=O)[C@H](CCCCN)NC(=O)[C@H](CCCCN)NC(=O)[C@H](CCCCN)NC(=O)[C@H](CCCCN)NC(=O)[C@H](CCCCN)NC(=O)[C@@H](N)CCCCN)C(=O)N[C@@H](CC(N)=O)C(=O)N[C@@H](CC(C)C)C(=O)N[C@H](C(=O)N[C@H](C(=O)N[C@@H](CCCNC(=N)N)C(=O)N[C@@H](CCC(N)=O)C(=O)N[C@@H](CCCNC(=N)N)C(=O)N[C@@H](Cc1ccc(O)cc1)C(N)=O)[C@@H](C)O)C(C)C [SEQ ID NO: 11, Lys-Lys-Lys-Lys-Lys-Lys-PYY25-36]",pEC50,human Y5 receptor [5],< 6.00
"CC[C@H](C)[C@H](NC(=O)[C@H](Cc1ccc(O)cc1)NC(=O)[C@H](CCCNC(=N)N)NC(=O)[C@H](CCCNC(=N)N)NC(=O)[C@H](CC(C)C)NC(=O)[C@H](CC(=O)O)NC(=O)[C@H](C)NC(=O)[C@H](C)NC(=O)[C@H](Cc1ccc(O)cc1)NC(=O)[C@H](CCC(N)=O)NC(=O)[C@H](C)NC(=O)[C@H](CCSC)NC(=O)[C@H](CCC(N)=O)NC(=O)[C@H](CCC(=O)O)NC(=O)[C@@H]1CCCN1C(=O)[C@@H](NC(=O)[C@H](C)NC(=O)[C@H](CC(N)=O)NC(=O)[C@H](CC(=O)O)NC(=O)CNC(=O)[C@@H]1CCCN1C(=O)[C@H](Cc1ccc(O)cc1)NC(=O)[C@@H](NC(=O)[C@@H]1CCCN1C(=O)[C@H](CCCCN)NC(=O)[C@H](CC(C)C)NC(=O)[C@@H]1CCCN1C(=O)[C@H](C)N)C(C)C)[C@@H](C)O)C(=O)N[C@@H](CC(N)=O)C(=O)N[C@@H](CCSC)C(=O)N[C@@H](CC(C)C)C(=O)N[C@H](C(=O)N[C@@H](CCCNC(=N)N)C(=O)N[C@@H](CCC(N)=O)C(=O)N[C@@H](CCCNC(=N)N)C(=O)N[C@@H](Cc1ccc(O)cc1)C(N)=O)[C@@H](C)O [SEQ ID NO: 12, [Lys4,Gln34]PP]",pIC50,human Y1 receptor [7],< 6.00
"[Ahx5-24, gamma-Glu2-eps-Lys30]NPY",blood pressure increase in vivo,rats,not to induce blood pressure increases

# From patent publication US20090186811A1, “Y2 Selective Receptor Agonists for Therapeutic Interventions” (priority 2004, published 2009)
